# According to PubChem BioAssay (NCI):
#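 The compound was tested at five concentrations on cells cultured in 96-well plates, with a 48-hour exposure period. TGI is the concentration that stops growth completely.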
# Columns and labels:
# Assay in all cases: growth of human tumour cells (NCI), 48 h
# HCC-2998 colon = test system: HCC-2998 colon
# NCI-H460 lung = test system: NCI-H460 lung
# SN12C renal = test system: SN12C renal
# SNB-75 CNS = test system: SNB-75 CNS
# MALME-3M melanoma = test system: MALME-3M melanoma
# RXF 393 renal = test system: RXF 393 renal
# OVCAR-8 ovarian = test system: OVCAR-8 ovarian
# NCI-H522 lung = test system: NCI-H522 lung
# RPMI-8226 leukemia = test system: RPMI-8226 leukemia
# CCRF-CEM leukemia = test system: CCRF-CEM leukemia
# LXFL 529 NSCLC = test system: LXFL 529 NSCLC
# MOLT-4 leukemia = test system: MOLT-4 leukemia
# CAKI-1 renal = test system: CAKI-1 renal
# OVCAR-4 ovarian = test system: OVCAR-4 ovarian
# SNB-19 CNS = test system: SNB-19 CNS
# A549 NSCLC = test system: A549 NSCLC
# 786-0 renal = test system: 786-0 renal
# IGROV1 ovarian = test system: IGROV1 ovarian
# OVCAR-3 ovarian = test system: OVCAR-3 ovarian
# SK-MEL-2 melanoma = test system: SK-MEL-2 melanoma
# UO-31 renal = test system: UO-31 renal
# DMS 114 small cell lung = test system: DMS 114 small cell lung
# M19-MEL melanoma = test system: M19-MEL melanoma
# KM20L2 colon = test system: KM20L2 colon
# U251 CNS = test system: U251 CNS
# DMS 273 small cell lung = test system: DMS 273 small cell lung
# SNB-78 CNS = test system: SNB-78 CNS
# SF-295 CNS = test system: SF-295 CNS
# SF-539 CNS = test system: SF-539 CNS
# COLO 205 colon = test system: COLO 205 colon
# A498 renal = test system: A498 renal
# UACC-62 melanoma = test system: UACC-62 melanoma
# SK-OV-3 ovarian = test system: SK-OV-3 ovarian
# K-562 leukemia = test system: K-562 leukemia
# SK-MEL-28 melanoma = test system: SK-MEL-28 melanoma
# UACC-257 melanoma = test system: UACC-257 melanoma
# SK-MEL-5 melanoma = test system: SK-MEL-5 melanoma
# KM12 colon = test system: KM12 colon
# OVCAR-5 ovarian = test system: OVCAR-5 ovarian
# HCT-116 colon = test system: HCT-116 colon
# NCI-H23 lung = test system: NCI-H23 lung
# M14 melanoma = test system: M14 melanoma
# ACHN renal = test system: ACHN renal
# SW-620 colon = test system: SW-620 colon
# NCI-H226 lung = test system: NCI-H226 lung
# HCT-15 colon = test system: HCT-15 colon
# HOP-62 NSCLC = test system: HOP-62 NSCLC
# HOP-18 NSCLC = test system: HOP-18 NSCLC
# TK-10 renal = test system: TK-10 renal
# LOX IMVI melanoma = test system: LOX IMVI melanoma
# HT29 colon = test system: HT29 colon
# SF-268 CNS = test system: SF-268 CNS
# NCI/ADR-RES ovarian = test system: NCI/ADR-RES ovarian
# HL-60(TB) leukemia = test system: HL-60(TB) leukemia
# DU-145 prostate = test system: DU-145 prostate
# T-47D breast = test system: T-47D breast
# MDA-MB-435 = test system: MDA-MB-435
# BT-549 breast = test system: BT-549 breast
# PC-3 prostate = test system: PC-3 prostate
# EKVX NSCLC = test system: EKVX NSCLC
# HOP-92 NSCLC = test system: HOP-92 NSCLC
# SR leukemia = test system: SR leukemia
# MDA-MB-231 breast = test system: MDA-MB-231 breast
# MCF7 breast = test system: MCF7 breast
# HS 578T breast = test system: HS 578T breast
# MDA-N = test system: MDA-N
smiles,measurement,setting,value
OC12c3ccccc3C1CCCCCCCCCC21OCCO1 (stereo not drawn),TGI,HCC-2998 colon,> 100 µM
same,TGI,NCI-H460 lung,> 100 µM
same,TGI,SN12C renal,> 100 µM
same,TGI,SNB-75 CNS,> 100 µM
same,TGI,MALME-3M melanoma,> 100 µM
same,TGI,RXF 393 renal,> 100 µM
same,TGI,OVCAR-8 ovarian,> 100 µM
same,TGI,NCI-H522 lung,> 100 µM
same,TGI,RPMI-8226 leukemia,> 100 µM
same,TGI,CCRF-CEM leukemia,> 100 µM
same,TGI,LXFL 529 NSCLC,> 100 µM
same,TGI,MOLT-4 leukemia,> 100 µM
same,TGI,CAKI-1 renal,> 100 µM
same,TGI,OVCAR-4 ovarian,> 100 µM
same,TGI,SNB-19 CNS,> 100 µM
same,TGI,A549 NSCLC,> 100 µM
same,TGI,786-0 renal,> 100 µM
same,TGI,IGROV1 ovarian,> 100 µM
same,TGI,OVCAR-3 ovarian,> 100 µM
same,TGI,SK-MEL-2 melanoma,> 100 µM
same,TGI,UO-31 renal,> 100 µM
same,TGI,DMS 114 small cell lung,> 100 µM
same,TGI,M19-MEL melanoma,> 100 µM
same,TGI,KM20L2 colon,> 100 µM
same,TGI,U251 CNS,> 100 µM
same,TGI,DMS 273 small cell lung,> 100 µM
same,TGI,SNB-78 CNS,> 100 µM
same,TGI,SF-295 CNS,> 100 µM
same,TGI,SF-539 CNS,> 100 µM
same,TGI,COLO 205 colon,> 100 µM
same,TGI,A498 renal,> 100 µM
same,TGI,UACC-62 melanoma,> 100 µM
same,TGI,SK-OV-3 ovarian,> 100 µM
same,TGI,K-562 leukemia,> 100 µM
same,TGI,SK-MEL-28 melanoma,> 100 µM
same,TGI,UACC-257 melanoma,> 100 µM
same,TGI,SK-MEL-5 melanoma,> 100 µM
same,TGI,KM12 colon,> 100 µM
same,TGI,OVCAR-5 ovarian,> 100 µM
same,TGI,HCT-116 colon,> 100 µM
same,TGI,NCI-H23 lung,> 100 µM
same,TGI,M14 melanoma,> 100 µM
same,TGI,ACHN renal,> 100 µM
same,TGI,SW-620 colon,> 100 µM
same,TGI,NCI-H226 lung,> 100 µM
same,TGI,HCT-15 colon,> 100 µM
same,TGI,HOP-62 NSCLC,> 100 µM
same,TGI,HOP-18 NSCLC,> 100 µM
same,TGI,TK-10 renal,> 100 µM
same,TGI,LOX IMVI melanoma,> 100 µM
same,TGI,HT29 colon,> 100 µM
same,TGI,SF-268 CNS,> 100 µM
Cc1[nH]c2ccccc2c1/C=N/NC(=O)c1cccc(I)c1,TGI,NCI/ADR-RES ovarian,56 µM
same,TGI,HCC-2998 colon,36.1 µM
same,TGI,NCI-H460 lung,36.1 µM
same,TGI,SN12C renal,> 100 µM
same,TGI,SNB-75 CNS,54.5 µM
same,TGI,MALME-3M melanoma,65.6 µM
same,TGI,HL-60(TB) leukemia,57.5 µM
same,TGI,RXF 393 renal,36.3 µM
same,TGI,OVCAR-8 ovarian,> 100 µM
same,TGI,NCI-H522 lung,63.7 µM
same,TGI,RPMI-8226 leukemia,48.4 µM
same,TGI,CCRF-CEM leukemia,63.2 µM
same,TGI,DU-145 prostate,92.5 µM
same,TGI,T-47D breast,52.9 µM
same,TGI,MOLT-4 leukemia,60.9 µM
same,TGI,CAKI-1 renal,50.4 µM
same,TGI,OVCAR-4 ovarian,43.2 µM
same,TGI,MDA-MB-435,35.7 µM
same,TGI,SNB-19 CNS,> 100 µM
same,TGI,A549 NSCLC,85.6 µM
same,TGI,786-0 renal,45.5 µM
same,TGI,IGROV1 ovarian,75.3 µM
same,TGI,OVCAR-3 ovarian,41.2 µM
same,TGI,BT-549 breast,61.5 µM
same,TGI,SK-MEL-2 melanoma,39.2 µM
same,TGI,UO-31 renal,61.6 µM
same,TGI,PC-3 prostate,66 µM
same,TGI,EKVX NSCLC,41.9 µM
same,TGI,U251 CNS,57 µM
same,TGI,HOP-92 NSCLC,51.4 µM
same,TGI,SR leukemia,44.5 µM
same,TGI,SF-295 CNS,43.3 µM
same,TGI,SF-539 CNS,38.2 µM
same,TGI,COLO 205 colon,27 µM
same,TGI,MDA-MB-231 breast,57.7 µM
same,TGI,A498 renal,34.6 µM
same,TGI,MCF7 breast,61.7 µM
same,TGI,UACC-62 melanoma,34.5 µM
same,TGI,SK-OV-3 ovarian,93.5 µM
same,TGI,K-562 leukemia,78.7 µM
same,TGI,SK-MEL-28 melanoma,76.3 µM
same,TGI,HS 578T breast,89.8 µM
same,TGI,UACC-257 melanoma,54.5 µM
same,TGI,MDA-N,52.4 µM
same,TGI,SK-MEL-5 melanoma,29.1 µM
same,TGI,KM12 colon,37.1 µM
same,TGI,OVCAR-5 ovarian,70.4 µM
same,TGI,HCT-116 colon,51.4 µM
same,TGI,NCI-H23 lung,53.5 µM
same,TGI,M14 melanoma,30 µM
same,TGI,ACHN renal,91.3 µM
same,TGI,SW-620 colon,> 100 µM
same,TGI,HCT-15 colon,84.5 µM
same,TGI,HOP-62 NSCLC,41 µM
same,TGI,TK-10 renal,87.7 µM
same,TGI,LOX IMVI melanoma,31.2 µM
same,TGI,HT29 colon,63.3 µM
same,TGI,SF-268 CNS,> 100 µM
O=[N+]([O-])c1cc(F)ccc1S(=O)(=O)c1ccccc1,TGI,NCI/ADR-RES ovarian,> 10 µM
same,TGI,HCC-2998 colon,> 10 µM
same,TGI,NCI-H460 lung,> 10 µM
same,TGI,SN12C renal,> 10 µM
same,TGI,SNB-75 CNS,> 10 µM
same,TGI,MALME-3M melanoma,> 10 µM
same,TGI,HL-60(TB) leukemia,> 10 µM
same,TGI,RXF 393 renal,> 10 µM
same,TGI,OVCAR-8 ovarian,> 10 µM
same,TGI,NCI-H522 lung,5.34 µM
same,TGI,RPMI-8226 leukemia,> 10 µM
same,TGI,CCRF-CEM leukemia,> 10 µM
same,TGI,DU-145 prostate,> 10 µM
same,TGI,T-47D breast,> 10 µM
same,TGI,MOLT-4 leukemia,> 10 µM
same,TGI,CAKI-1 renal,> 10 µM
same,TGI,OVCAR-4 ovarian,> 10 µM
same,TGI,MDA-MB-435,> 10 µM
same,TGI,SNB-19 CNS,> 10 µM
same,TGI,A549 NSCLC,> 10 µM
same,TGI,786-0 renal,> 10 µM
same,TGI,IGROV1 ovarian,> 10 µM
same,TGI,OVCAR-3 ovarian,> 10 µM
same,TGI,BT-549 breast,> 10 µM
same,TGI,SK-MEL-2 melanoma,> 10 µM
same,TGI,PC-3 prostate,> 10 µM
same,TGI,EKVX NSCLC,> 10 µM
same,TGI,U251 CNS,> 10 µM
same,TGI,HOP-92 NSCLC,> 10 µM
same,TGI,SR leukemia,> 10 µM
same,TGI,SF-295 CNS,> 10 µM
same,TGI,SF-539 CNS,> 10 µM
same,TGI,COLO 205 colon,> 10 µM
same,TGI,MDA-MB-231 breast,> 10 µM
same,TGI,A498 renal,> 10 µM
same,TGI,MCF7 breast,> 10 µM
same,TGI,UACC-62 melanoma,> 10 µM
same,TGI,SK-OV-3 ovarian,> 10 µM
same,TGI,K-562 leukemia,> 10 µM
same,TGI,SK-MEL-28 melanoma,> 10 µM
same,TGI,HS 578T breast,> 10 µM
same,TGI,UACC-257 melanoma,> 10 µM
same,TGI,MDA-N,> 10 µM
same,TGI,SK-MEL-5 melanoma,> 10 µM
same,TGI,KM12 colon,> 10 µM
same,TGI,OVCAR-5 ovarian,> 10 µM
same,TGI,HCT-116 colon,> 10 µM
same,TGI,NCI-H23 lung,> 10 µM
same,TGI,M14 melanoma,> 10 µM
same,TGI,ACHN renal,> 10 µM
same,TGI,SW-620 colon,> 10 µM
same,TGI,NCI-H226 lung,> 10 µM
same,TGI,HCT-15 colon,> 10 µM
same,TGI,HOP-62 NSCLC,> 10 µM
same,TGI,TK-10 renal,> 10 µM
same,TGI,LOX IMVI melanoma,> 10 µM
same,TGI,HT29 colon,> 10 µM
same,TGI,SF-268 CNS,> 10 µM
